Data set [1] in a line: Metabolic stability test: liver microsomal stability assay. Format: in vitro ADME, mouse.
Data set [2] is described as follows: Membrane permeability test using Caco-2 cells with preincubation. The class given is in vitro ADME. The settings on record: Caco-2. A general note: Passage across Caco-2 layers is used to estimate intestinal permeability.
The next data set has as its system Caco-2 cells. The data set is described as above. The class given is in vitro ADME.
Data set [3] in a line: Mouse PK test: plasma concentration after intravenous or oral administration. The class given is in vivo, mice (C57BL/6J). The conditions noted are these: C57BL/6J. Here is the method:
We evaluated the plasma concentration changes after intravenous or oral administration of four types of peptides that satisfy these conditions to mice.
To male mice (C57BL/6J, 10 weeks old, purchased from Charles River Laboratories Japan, Inc.: 3 mice per group), the compound was administered intravenously at a dose of 1 mg/kg or orally at a dose of 50 mg/kg, and blood was collected from the jugular vein over time up to 24 hours after administration. The collected blood was dispensed into tubes that were pre-treated with heparin as an anticoagulant. Plasma was separated from the blood by centrifugation, and after deproteinization with acetonitrile, the plasma concentration of the compound was measured with an LC/MS/MS device (XEVO TQ-XS, manufactured by Waters Corporation).

Read-outs that look alike come from different tables or passages of the source. Starred links: 1 amine or outer side, 2 acyl side, 3 side chain; linkers in the order of their positions; H or OH if unused. Non-standard residues stand in square brackets, D forms with d. Residues, ends and D or L forms follow the SMILES beside them. *: point of attachment. NMedβ3hAla = C[C@H](CC(=O)[*:2])N(C)[*:1]; NMeF = CN[C@@H](Cc1ccccc1)C(=O)O; NMeI = CC[C@H](C)[C@H](NC)C(=O)O; NMeT = CN[C@H](C(=O)O)[C@@H](C)O; NMeβAla = CN(CCC(=O)[*:2])[*:1]; NMeL = CN[C@@H](CC(C)C)C(=O)O; NMeV = CN[C@H](C(=O)O)C(C)C; d(β3hA) = C[C@@H](N)CC(=O)O; NMeAbu = CC[C@H](NC)C(=O)O; Abu = CC[C@H](N)C(=O)O; Sar = CNCC(=O)O; tBu = CC(C)(C)*

One may read the Cmax as the peak of the concentration-time curve. The Tmax is the time at which the peak concentration occurs. Turning to `CC[C@@H]1NC(=O)[C@H](CC(C)C)N(C)C(=O)[C@H]([C@@H](C)CC)NC(=O)[C@H](CC(C)C)N(C)C(=O)C[C@@H](C)NC(=O)[C@H](C(C)C)N(C)C(=O)[C@H](CC(C)C)NC(=O)[C@H](CC)N(C)C(=O)[C@H](Cc2ccccc2)N(C)C(=O)[C@@H]2CCCN2C(=O)[C@H](CC(C)C)NC(=O)[C@H]([C@@H](C)O)N(C)C(=O)[C@H](CC(C)C)N(C)C1=O` [pd135] (cyclo([Abu][NMeL][NMeT]LP[NMeF][NMeAbu]L[NMeV][d(β3hA)][NMeL]I[NMeL])), the microsomal CLint at 1 µM in data set [1] (male, pH 7.4, mouse liver microsomes 0.5 mg protein/mL, compound 1 µM, presence of NADPH, read-out: Mouse Hepatic Microsome CLh,int NADPH(+)) is 39.5 µL/min/mg. In addition, in data set [1] (mouse liver microsomes 0.5 mg protein/mL, compound 1 µM, absence of NADPH), the “Mouse Hepatic Microsome CLh,int NADPH(-)” value is on record as 28.4 µL/min/mg Protein. For the same compound, in data set [2] (preincubation 20 to 24 hours, Apical FaSSIF/HBSS pH 6.0, Basal HBSS 4% BSA pH 7.4, 180 minutes, read-out: Caco2 Papp), the Papp A→B came to 1.95 ×10⁻⁶ cm/s. The “Caco2 Papp (10^-6 cm/sec)” value in the data set with Caco-2 cells (Caco-2 cells, preincubation 20 to 24 hours, apical FaSSIF/HBSS 1% DMSO pH 6.0, basal HBSS 4% BSA pH 7.4, basal sample at 180 minutes) is 1.95 10^-6 cm/sec. Also, the AUC(0-inf) in data set [3] (plasma, male mice, intravenous administration, 1 mg/kg, read-out: AUCinf) came to 10000 ng·h/mL; in data set [3] (plasma, male mice, oral administration, 50 mg/kg, read-out: AUCinf), 79000 ng·h/mL. Moreover, in data set [3] (plasma, male mice, intravenous administration, 1 mg/kg, read-out: CL), the clearance amounted to 1.7 mL/min/kg. Besides, the Vd in data set [3] (plasma, male mice, intravenous administration, 1 mg/kg, read-out: Vss) worked out at 0.81 L/kg. Also, the half-life in data set [3] (plasma, male mice, intravenous administration, 1 mg/kg, read-out: t1/2 (converted)) was 6.4 h; in data set [3] (plasma, male mice, oral administration, 50 mg/kg, read-out: t1/2 (converted)), 7.6 h. Besides, the bioavailability in data set [3] (plasma, male mice, oral 50 mg/kg vs intravenous 1 mg/kg, bioavailability, read-out: F) came to 16%. Besides, in data set [3] (plasma, male mice, oral administration, 50 mg/kg, read-out: Cmax), the Cmax is 7000 ng/mL. Further, in data set [3] (plasma, male mice, oral administration, 50 mg/kg, read-out: Tmax), the Tmax is 1.7 h.

`CC[C@H](C)[C@H]1C(=O)N[C@@H](CC(C)C)C(=O)N(C)CC(=O)N(C)[C@@H](CC(C)C)C(=O)N[C@@H](CC(C)C)C(=O)N(C)[C@H](C)CC(=O)N(C)[C@@H](CC(C)C)C(=O)N(C)CCC(=O)N(C)[C@@H](CC(C)C)C(=O)N[C@@H](COC(C)(C)C)C(=O)N(C)[C@@H](Cc2ccccc2)C(=O)N(C)CCC(=O)N(C)[C@@H](Cc2ccccc2)C(=O)N1C` [pd144] (cyclo(L[Sar][NMeL]L[NMedβ3hAla][NMeL][NMeβAla][NMeL]S(tBu)[NMeF][NMeβAla][NMeF][NMeI])): the “Mouse Hepatic Microsome CLh,int NADPH(-)” value in data set [1] is given as 34.0 µL/min/mg Protein. The compound also registered a Papp A→B in data set [2] of 1.28 ×10⁻⁶ cm/s. Further, the “Caco2 Papp (10^-6 cm/sec)” value with Caco-2 cells (Caco-2) is recorded as 1.28 10^-6 cm/sec. Besides, in data set [3] (male, in vivo, iv, 1 mg/kg), the AUC(0-inf) was 3500 ng·h/mL, the Vd was found to be 1.6 L/kg, the clearance turned out to be 4.9 mL/min/kg and the half-life is 5.3 h. In data set [3] (male, in vivo, po), this compound registered a bioavailability of 40%. Further, in data set [3] (male, in vivo, po, 50 mg/kg), the AUC(0-inf) was 71000 ng·h/mL, the concentration peaked (Cmax) at 7000 ng/mL, the Tmax amounted to 1.3 h and the half-life was 9.7 h.

Values taken from patent EP4768499A1, “MACROCYCLIC PEPTIDE COMPOUND HAVING CELL MEMBRANE PERMEABILITY AND METABOLIC STABILITY, AND LIBRARY CONTAINING SAME” (Chugai Seiyaku Kabushiki Kaisha, priority 2023, dated 2025).
